Assay results taken from article PMC3723632, “A Multi-targeted Drug Candidate with Dual Anti-HIV and Anti-HSV Activity” (PLoS Pathogens, 2013).
Values after ≈ are worked out from the molar mass of the structure shown.

How the values were obtained:
[1] = tested on: HSV-2 (G); design: method as in PMID 22018238; conditions: tonsilar tissue; cited from earlier work
[2] = tested on: HSV-1 and HSV-2; assay: Organotypic epithelial raft cultures of PHKs, virus production; assay type: cell-based; conditions: HSV-1 and HSV-2, 20 µg/ml
Experimental: Figure 3 Inhibitory activities of tenofovir, adefovir, and PMEO-DAPym against laboratory HSV-1 and HSV-2 strains in organotypic epithelial raft cultures. Panels A (HSV-1) and B (HSV-2): Drugs at different concentrations were added to the raft cell cultures on the day of infection (10 days after initiation of differentiation). The drugs remained in the presence of the cells for 5 days until the rafts were frozen for determination of virus production with a plaque assay in HEL cell cultures. Error bars represent S.D.
The epithelial cells were allowed to stratify. […] Virus production per raft was then calculated.

[3] = tested on: PBMC; assay: PBMC viability (trypan blue dye exclusion, flow cytometry); assay type: cell-based, human; conditions: 20, 100 and 500 µg/ml
[4] = tested on: PBMC; assay: Flow cytometry of activation markers on PBMC; assay type: cell-based, human; conditions: 72 h exposure
Experimental: Figure 10 Expression of activation markers on PBMCs treated with adefovir, tenofovir, or PMEO-DAPym. PBMCs were incubated with adefovir, tenofovir, or PMEO-DAPym for 3 days. The mitogenic lectin PHA (at 2 µg/ml) was included as a positive control. We measured cell surface expression of CD4 and the activation markers CD69 (top panel), CD25 (middle panel), and HLA-DR (bottom panel) using flow cytometry with the […] CD4-specific mAb (clone SK3) and the phycoerythrin-labeled CD69, CD25, HLA-DR-specific mAbs. Shown are means ± SEM from two independent experiments.
PBMC were cultured in the presence of adefovir, tenofovir, and PMEO-DAPym and incubated at 37°C in a humidified, 5% CO2-controlled atmosphere. The expression of cellular activation markers was measured after 3 days of culture. […] Finally, the cells were washed with PBS, fixed with 1% formaldehyde solution, and analyzed with a FACSCalibur (BD Biosciences, San Jose, CA); data were acquired with CellQuest software and further analyzed with the FLOWJO software (Tree Star, San Carlos, CA). The expression of the chemokine receptors was measured after 24 h, and PBMC were incubated with PerCP-conjugated anti-CD4 mAb (clone SK3) in combination with APC-conjugated anti-CXCR4 mAb (clone 12G5) and PE-conjugated anti-CCR5 (clone 2D7) or anti-CXCR3 (clone 1C6). […]

[5] = tested on: organotypic epithelial raft cultures of the PHKs; assay: Histological examination of cell differentiation in raft cultures; conditions: highest tested concentration 50 µg/ml
Experimental: Primary human keratinocytes (PHKs) were seeded on top of collagen gels in 24-well microtiter plates and maintained submerged for 24–48 h. The collagen rafts were then raised and placed into stainless-steel grids at the interface between air and the liquid culture medium. The epithelial cells were allowed to stratify. Rafts were infected with 5,000 PFU of HSV-1KOS or HSV-2G at 10 days post lifting and treated with adefovir or PMEO-DAPym. Five days later, one series of rafts was fixed in 10% buffered formalin, embedded in paraffin, and stained with hematoxylin and eosin for histological evaluation.

[6] = tested on: PBMC; assay: Chemokine mRNA expression (RT-PCR) in PBMC; assay type: cell-based, human; conditions: 100 µg/ml, 4 h
Experimental: Figure 9 Expression of CC-chemokines, CCR5 and chemokine mRNA expression in PBMC cultures after drug treatment. Panel A: Production of CC-chemokines by PBMC and the effects of adefovir, tenofovir, and PMEO-DAPym on the expression of the CCR5 receptor. Freshly isolated PBMCs from four healthy donors were incubated for 24 h with medium only (NC) or with adefovir, tenofovir, or PMEO-DAPym. We collected the supernatants and measured the concentrations of MIP-1α (▪), MIP-1β (▴), and RANTES (•) using a Bioplex system (Bio-Rad, Hercules, CA). Shown are means ± SEM. The cells were also collected, and the expression of the CCR5 receptor (□) was measured with flow cytometry using the PE-labeled CCR5 (clone 2D7) mAb; it is shown as percentage of control (± SEM) from four independent representative experiments. Panel B: Chemokine mRNA expression upon PMEO-DAPym exposure to PBMC. RT-PCR analysis of MIP-1α, MIP-1β, RANTES, and GAPDH (control) expression in PBMC treated with 100-µg/ml PMEO-DAPym for 4 h. Similar results were obtained with PBMC from three different donors. Results from one representative donor are shown.
We isolated total RNA from approximately 10^6 PBMC using the RNeasy Mini Kit (QIAGEN, Hilden, Germany). To eliminate potential genomic DNA contamination, the samples were treated with DNase I (Roche). […]

[7] = tested on: HSV-1 (RV-174); assay: Virus yield reduction assay in HEL cells, HSV-1 clinical isolate; conditions: for EC90: Human alphaherpesvirus 1, HEL
Experimental: These assays were carried out in HEL cell monolayers at different times post infection. […] After 2 h at 37°C, the cells were washed and medium containing different concentrations of PMEO-DAPym (in duplicate) was added. Following 24, 48, and 72 h of incubation, we released the viruses by freeze-thawing and then titrated them using a plaque assay in HEL cells.

SMILES | concentration that comparably inhibited HSV-2 replication [1] | reduction of herpesvirus replication [2] | PBMC viability [3] | upregulation of cell activation markers (HLA-DR, CD25, CD69 and others) [4] | effect on cell differentiation (histological examination) [5] | increase in MIP-1β and MIP-1α mRNA expression [6] | EC90 ([7]; 24 h, RV-174, moi = 5x10^-3, 24 hours) | EC90 ([7]; 24 h, RV-174, moi = 5x10^-4, 24 hours) | EC90 ([7]; 48 h, RV-174, moi = 5x10^-3, 48 hours) | EC90 ([7]; 48 h, RV-174, moi = 5x10^-4, 48 hours) | EC90 ([7]; 72 h, RV-174, moi = 5x10^-3, 72 hours) | EC90 ([7]; 72 h, RV-174, moi = 5x10^-4, 72 hours) | EC99 ([7]; RV-174, moi = 5x10^-3, 24 hours) | EC99 ([7]; RV-174, moi = 5x10^-3, 48 hours) | EC99 ([7]; RV-174, moi = 5x10^-3, 72 hours) | EC99 ([7]; RV-174, moi = 5x10^-4, 24 hours) | EC99 ([7]; RV-174, moi = 5x10^-4, 48 hours) | EC99 ([7]; RV-174, moi = 5x10^-4, 72 hours)
C[C@H](Cn1cnc2c(N)ncnc21)OCP(=O)(O)O [Tenofovir, 9-(2-phosphonylmethoxypropyl)adenine] | 240 µg/mL | < 0.5 log10 | – | – | – | – | – | – | – | – | – | – | – | – | – | – | – | –
Nc1cc(OCCOCP(=O)(O)O)nc(N)n1 [PMEO-DAPym, 6-phosphonylmethoxyethoxy-2,4-diaminopyrimidine] | – | – | did not affect PBMC viability | none of the cell activation markers | no effect on cell differentiation | > 9 fold | < 1 µg/mL | 2.27 µg/mL (≈ 8.59 µM) | 1 µg/mL (≈ 3.79 µM) | < 1 µg/mL | 1 µg/mL (≈ 3.79 µM) | < 1 µg/mL | 3.81 µg/mL | 4.96 µg/mL | 3.92 µg/mL | 6.26 µg/mL | 2.74 µg/mL | 3.59 µg/mL
